Patent US20110028422A1 (priority 2007, published 2011)

Columns and labels:
H2AX = experiment: CLB-induced H2AX; type: cell-based
CLL lymphocytes = experiment: MTT cytotoxic assay, CLB sensitization (Example I); type: cell-based, human; settings: MTT 72 h
Description: Aliquots containing 1×10^6 cells/ml are sent for T-lymphocyte analysis. The percentage of contaminating T lymphocytes is determined using fluorescence-activated cell sorting analysis with CD3 antibody. […] A-2) Plating Efficiency and Dosing. […] Only dose responses with linear plating efficiencies are analyzed. […] A-3) Cytotoxic Assay. […] The percentage of surviving cells after treatment respect to vehicle treated cells (control) is calculated as (OD treated cells/OD untreated cells)×100. […] A-4) Statistical Analysis Differences between mean values is assessed by two tailed t-test. Correlation and linear regression analysis are performed using the EXCEL Statistical Tool Package.

NFκB pathway = NFκB pathway regulation; type: cell-based; settings: c-abl inhibition; B-CLL lymphocytes

SMILES: Cc1cn(-c2cc(NC(=O)c3ccc(C)c(Nc4nccc(-c5cccnc5)n4)c3)cc(C(F)(F)F)c2)cn1 [Nilotinib, 4-methyl-3-[[4-(3-pyridinyl)-2-pyrimidinyl]amino]-N-[5-(4-methyl-1H-imidazol-1-yl)-3-(trifluoromethyl)phenyl]benzamide]
- CLB-induced □ H2AX (H2AX): increased
- samples in which potency in sensitizing CLL lymphocytes towards chlorambucil was greater than imatinib (CLL lymphocytes): 16/19
- NFκB pathway (NFκB pathway): down regulation
